Assay results from patent US20070292908A1, “Method for Detecting Streptococcus Agalactiae Using Alpha-Glucosidase Activity” (BIOMERIEUX, priority 2004, published 2007).

Key:
Streptococcus agalactiae [1] = assay: Detection of Streptococcus agalactiae strains on reaction media containing an α-glucosidase enzymatic substrate; format: cell-based; settings: substrate 0.1 g/l; for intensity (I) of coloration: arbitrary scale 0 to 4
Procedure: The reaction media were prepared by mixing heart-brain extract (4.84 g/l; Solabia), meat infusion (1.96 g/l; Solabia), biothione (1 g/l; Solabia), biotrypcase (7.2 g/l; Solabia), sodium carbonate (0.3 g/l; VWR), sodium pyruvate (2 g/l; Fluka), HEPES buffer (0.4 g/l; Sigma), lactalbumin peptone (2 g/l; DMV), glucose (1 g/l; Merck), American agar (2 g/l; Sobigel) and European agar (12 g/l; Roko).
The media were then poured into a Petri dish for subsequent inoculation with bacterial strains.
Eight Streptococcus agalactiae strains derived from the applicant's collection, suspended in physiological saline, were inoculated so as to give isolated colonies on each of the media. The dishes were then incubated at 37° C. for 48 hours. The colonies formed are examined visually after 18, 24 and more than 40 hours of incubation. The coloration of these colonies, the growth and also the intensity of this coloration were noted.
The results are given in table 1 below and are expressed: • in terms of growth (G) with the size being indicated in mm, • in terms of intensity (1) of coloration based on an arbitrary scale ranging from 0 to 4, 0 corresponding to an absence of activity and 4 corresponding to the presence of a very intense coloration, • in terms of color (Co) with T=turquoise, R=pink or red, Gr=green, Mg=magenta, • according to the incubation time in hours (T).

Streptococcus agalactiae [2] = assay: Number of strains detected as a function of the concentration of α-glucosidase substrate; format: cell-based; settings: positive when I≧0.6, 8 strains
Description: The above protocol was repeated, with the exception that the concentration of enzymatic substrate was varied.
Table 2 below gives the number of strains detected (considered to be positive when I≧0.6) as a function of the concentration of substrate.

[3] = strain 0008200, 18 h incubation
[4] = strain 0008200, 24 h incubation
[5] = strain 0008200, >40 h incubation
[6] = strain 0008206, 18 h incubation
[7] = strain 0008206, 24 h incubation
[8] = strain 0008206, >40 h incubation
[9] = strain 0101060, 18 h incubation
[10] = strain 0101060, 24 h incubation
[11] = strain 0101060, >40 h incubation
[12] = strain 7611003, 18 h incubation
[13] = strain 7611003, 24 h incubation
[14] = strain 7611003, >40 h incubation
[15] = strain 7701031, 18 h incubation
[16] = strain 7701031, 24 h incubation
[17] = strain 7701031, >40 h incubation
[18] = strain 7702055, 18 h incubation
[19] = strain 7702055, 24 h incubation
[20] = strain 7702055, >40 h incubation
[21] = strain 8709013, 18 h incubation
[22] = strain 8709013, 24 h incubation
[23] = strain 8709013, >40 h incubation
[24] = strain 8904053, 18 h incubation
[25] = strain 8904053, 24 h incubation
[26] = strain 8904053, >40 h incubation
[27] = substrate 100 mg/l, incubation 24 h
[28] = substrate 100 mg/l, incubation 48 h
[29] = substrate 200 mg/l, incubation 24 h
[30] = substrate 200 mg/l, incubation 48 h
[31] = substrate 300 mg/l, incubation 24 h
[32] = substrate 300 mg/l, incubation 48 h

5-bromo-4-chloro-3-indolyl-α-D-glucopyranoside [X-alpha-Glu]
intensity (I) of coloration (Streptococcus agalactiae [1]; strain 0008200, 18 h): 0.3 | growth (G), size (Streptococcus agalactiae [1]; [3]): 0.7 mm | intensity (I) of coloration (Streptococcus agalactiae [1]; strain 0008200, 24 h): 0.6 | growth (G), size (Streptococcus agalactiae [1]; [4]): 0.7 mm | intensity (I) of coloration (Streptococcus agalactiae [1]; strain 0008200, >40 h): 2.3 | growth (G), size (Streptococcus agalactiae [1]; [5]): 0.8 mm | intensity (I) of coloration (Streptococcus agalactiae [1]; strain 0008206, 18 h): 0.3 | growth (G), size (Streptococcus agalactiae [1]; [6]): 0.7 mm | intensity (I) of coloration (Streptococcus agalactiae [1]; strain 0008206, 24 h): 1 | growth (G), size (Streptococcus agalactiae [1]; [7]): 0.7 mm | intensity (I) of coloration (Streptococcus agalactiae [1]; strain 0008206, >40 h): 2 | growth (G), size (Streptococcus agalactiae [1]; [8]): 0.8 mm | intensity (I) of coloration (Streptococcus agalactiae [1]; strain 0101060, 18 h): 2.7 | growth (G), size (Streptococcus agalactiae [1]; [9]): 0.4 mm | intensity (I) of coloration (Streptococcus agalactiae [1]; strain 0101060, 24 h): 3 | growth (G), size (Streptococcus agalactiae [1]; [10]): 0.5 mm | intensity (I) of coloration (Streptococcus agalactiae [1]; strain 0101060, >40 h): 4 | growth (G), size (Streptococcus agalactiae [1]; [11]): 0.7 mm | intensity (I) of coloration (Streptococcus agalactiae [1]; strain 7611003, 18 h): 2.3 | growth (G), size (Streptococcus agalactiae [1]; [12]): 1 mm | intensity (I) of coloration (Streptococcus agalactiae [1]; strain 7611003, 24 h): 2.7 | growth (G), size (Streptococcus agalactiae [1]; [13]): 1.2 mm | intensity (I) of coloration (Streptococcus agalactiae [1]; strain 7611003, >40 h): 3 | growth (G), size (Streptococcus agalactiae [1]; [14]): 1.5 mm | growth (G), size (Streptococcus agalactiae [1]; [15]): 0.5 mm | growth (G), size (Streptococcus agalactiae [1]; [16]): 0.7 mm | growth (G), size (Streptococcus agalactiae [1]; [17]): 1.2 mm | intensity (I) of coloration (Streptococcus agalactiae [1]; strain 7702055, 18 h): 0.5 | growth (G), size (Streptococcus agalactiae [1]; [18]): 0.7 mm | intensity (I) of coloration (Streptococcus agalactiae [1]; strain 7702055, 24 h): 1 | growth (G), size (Streptococcus agalactiae [1]; [19]): 1 mm | intensity (I) of coloration (Streptococcus agalactiae [1]; strain 7702055, >40 h): 3 | growth (G), size (Streptococcus agalactiae [1]; [20]): 1.7 mm | intensity (I) of coloration (Streptococcus agalactiae [1]; strain 8709013, 18 h): 0.1 | growth (G), size (Streptococcus agalactiae [1]; [21]): 0.4 mm | intensity (I) of coloration (Streptococcus agalactiae [1]; strain 8709013, 24 h): 0.6 | growth (G), size (Streptococcus agalactiae [1]; [22]): 0.5 mm | intensity (I) of coloration (Streptococcus agalactiae [1]; strain 8709013, >40 h): 2 | growth (G), size (Streptococcus agalactiae [1]; [23]): 0.7 mm | intensity (I) of coloration (Streptococcus agalactiae [1]; strain 8904053, 18 h): 0.3 | growth (G), size (Streptococcus agalactiae [1]; [24]): 0.7 mm | intensity (I) of coloration (Streptococcus agalactiae [1]; strain 8904053, 24 h): 0.6 | growth (G), size (Streptococcus agalactiae [1]; [25]): 0.7 mm | intensity (I) of coloration (Streptococcus agalactiae [1]; strain 8904053, >40 h): 2.3 | growth (G), size (Streptococcus agalactiae [1]; [26]): 0.8 mm | number of strains detected (Streptococcus agalactiae [2]; [27]): 3/8 | number of strains detected (Streptococcus agalactiae [2]; [28]): 7/8 | number of strains detected (Streptococcus agalactiae [2]; [29]): 7/8 | number of strains detected (Streptococcus agalactiae [2]; [30]): 7/8 | number of strains detected (Streptococcus agalactiae [2]; [31]): 7/8 | number of strains detected (Streptococcus agalactiae [2]; [32]): 7/8

5-bromo-6-chloro-3-indolyl-α-D-glucopyranoside [Magenta-alpha-Glu]
intensity (I) of coloration (Streptococcus agalactiae [1]; strain 0008200, 18 h): 0.5 | growth (G), size (Streptococcus agalactiae [1]; [3]): 0.5 mm | intensity (I) of coloration (Streptococcus agalactiae [1]; strain 0008200, 24 h): 0.8 | growth (G), size (Streptococcus agalactiae [1]; [4]): 0.5 mm | intensity (I) of coloration (Streptococcus agalactiae [1]; strain 0008200, >40 h): 3 | growth (G), size (Streptococcus agalactiae [1]; [5]): 0.5 mm | intensity (I) of coloration (Streptococcus agalactiae [1]; strain 0008206, 18 h): 0.6 | growth (G), size (Streptococcus agalactiae [1]; [6]): 0.7 mm | intensity (I) of coloration (Streptococcus agalactiae [1]; strain 0008206, 24 h): 0.8 | growth (G), size (Streptococcus agalactiae [1]; [7]): 0.7 mm | intensity (I) of coloration (Streptococcus agalactiae [1]; strain 0008206, >40 h): 3 | growth (G), size (Streptococcus agalactiae [1]; [8]): 0.7 mm | intensity (I) of coloration (Streptococcus agalactiae [1]; strain 0101060, 18 h): 2.7 | growth (G), size (Streptococcus agalactiae [1]; [9]): 0.4 mm | intensity (I) of coloration (Streptococcus agalactiae [1]; strain 0101060, 24 h): 2.7 | growth (G), size (Streptococcus agalactiae [1]; [10]): 0.4 mm | intensity (I) of coloration (Streptococcus agalactiae [1]; strain 0101060, >40 h): 4 | growth (G), size (Streptococcus agalactiae [1]; [11]): 0.5 mm | intensity (I) of coloration (Streptococcus agalactiae [1]; strain 7611003, 18 h): 1 | growth (G), size (Streptococcus agalactiae [1]; [12]): 0.5 mm | intensity (I) of coloration (Streptococcus agalactiae [1]; strain 7611003, 24 h): 2 | growth (G), size (Streptococcus agalactiae [1]; [13]): 0.7 mm | intensity (I) of coloration (Streptococcus agalactiae [1]; strain 7611003, >40 h): 3 | growth (G), size (Streptococcus agalactiae [1]; [14]): 0.7 mm | growth (G), size (Streptococcus agalactiae [1]; [15]): 0.5 mm | growth (G), size (Streptococcus agalactiae [1]; [16]): 0.5 mm | intensity (I) of coloration (Streptococcus agalactiae [1]; strain 7701031, >40 h): 2 | growth (G), size (Streptococcus agalactiae [1]; [17]): 0.8 mm | intensity (I) of coloration (Streptococcus agalactiae [1]; strain 7702055, 18 h): 0.5 | growth (G), size (Streptococcus agalactiae [1]; [18]): 0.5 mm | intensity (I) of coloration (Streptococcus agalactiae [1]; strain 7702055, 24 h): 0.6 | growth (G), size (Streptococcus agalactiae [1]; [19]): 0.8 mm | intensity (I) of coloration (Streptococcus agalactiae [1]; strain 7702055, >40 h): 3 | growth (G), size (Streptococcus agalactiae [1]; [20]): 1 mm | intensity (I) of coloration (Streptococcus agalactiae [1]; strain 8709013, 18 h): 0.5 | growth (G), size (Streptococcus agalactiae [1]; [21]): 0.4 mm | intensity (I) of coloration (Streptococcus agalactiae [1]; strain 8709013, 24 h): 1.3 | growth (G), size (Streptococcus agalactiae [1]; [22]): 0.5 mm | intensity (I) of coloration (Streptococcus agalactiae [1]; strain 8709013, >40 h): 2.7 | growth (G), size (Streptococcus agalactiae [1]; [23]): 0.7 mm | intensity (I) of coloration (Streptococcus agalactiae [1]; strain 8904053, 18 h): 0.6 | growth (G), size (Streptococcus agalactiae [1]; [24]): 0.7 mm | intensity (I) of coloration (Streptococcus agalactiae [1]; strain 8904053, 24 h): 0.6 | growth (G), size (Streptococcus agalactiae [1]; [25]): 0.7 mm | intensity (I) of coloration (Streptococcus agalactiae [1]; strain 8904053, >40 h): 3 | growth (G), size (Streptococcus agalactiae [1]; [26]): 0.7 mm | number of strains detected (Streptococcus agalactiae [2]; [27]): 2/8 | number of strains detected (Streptococcus agalactiae [2]; [28]): 8/8 | number of strains detected (Streptococcus agalactiae [2]; [29]): 7/8 | number of strains detected (Streptococcus agalactiae [2]; [30]): 8/8 | number of strains detected (Streptococcus agalactiae [2]; [31]): 7/8 | number of strains detected (Streptococcus agalactiae [2]; [32]): 8/8
